Test results published in paper PMC9065877, “Safety, tolerability and pharmacokinetics of the oligomer modulator anle138b with exposure levels sufficient for therapeutic efficacy in a murine Parkinson model: A randomised, double-blind, placebo-controlled phase 1a trial” (EBioMedicine, 2022).

Tested on: striatal dopamine (DA) release in MI2 mice
Assay: Dose-response study in MI2 mice: striatal dopamine release by in vivo microdialysis
Set-up: species or system mouse
Conditions: up to 300 mg/kg/day in food
Procedure: An anle138b pharmacodynamics dose-response study was performed using MI2 mice, a novel model of α-synucleinopathy characterized by a progressive PD-like phenotype including accumulation of α-synuclein inclusions in nigrostriatal dopaminergic neurons and impairment of striatal dopamine (DA) release (Wegrzynowicz et al., 2019). The research was carried out in accordance with the Animals (Scientific Procedures) Act 1986 Amendment Regulations 2012 after the review by the University of Cambridge Animal Welfare and Ethical Review Body (AWERB), under the project license 70/8383. Anle138b treatment was commenced at 6 months, an age when impairment of striatal DA release is already observed in MI2 mice, but prior to nigral neuronal loss. […] After 2 months of treatment (at the age of 8 months), striatal release of DA was analysed using in vivo microdialysis, as previously reported (Wegrzynowicz et al., 2019). […] DA levels in the microdialysates were measured by high performance liquid chromatography with electrochemical detection, as described in (Garcia-Reitböck et al., 2010). […] The obtained chromatograms were analysed with Chromeleon Chromatography Data System (V 6·2; Dionex). […]

SMILES: Brc1cccc(-c2cc(-c3ccc4c(c3)OCO4)n[nH]2)c1 [anle138b, 3-(1,3-benzodioxol-5-yl)-5-(3-bromophenyl)-1H-pyrazole]
- Effect on striatal dopamine release at higher doses: stabile maximal effects were observed
